Experiments:
Experiment in all cases: relative viability (nuclei count vs DMSO), 5 days (fraction); higher = more cells survive
201T = system: 201T
Outline: (§1)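 A single step with final 0.05% Triton X-100, 1% formaldehyde and 1 ug/ml Hoechst fixed the cells and stained nuclei 5 days after treatment. Lung cancer cell lines in 1536-well plates had been treated by pin tool the day after seeding with one drug alone or a fixed anchor-drug dose plus five library-drug doses (not always all listed) in √10 steps, and nuclei were counted on 4× images. Relative viability is the ratio of nuclei in treated wells to nuclei in vehicle wells, taken as the median of duplicate plates.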

NCI-H2023 = system: NCI-H2023
Outline: as §1

NCI-H1792 = system: NCI-H1792
Outline: as §1

NCI-H2087 = system: NCI-H2087
Outline: as §1

NCI-H1915 = system: NCI-H1915
Outline: as §1

NCI-H441 = system: NCI-H441
Outline: as §1

PC-3 [JPC-3] = system: PC-3 [JPC-3]
Outline: as §1

LCLC-97TM1 = system: LCLC-97TM1
Outline: as §1

NCI-H661 = system: NCI-H661
Outline: as §1

NCI-H520 = system: NCI-H520
Outline: as §1

BEN = system: BEN
Outline: as §1

CAL-12T = system: CAL-12T
Outline: as §1

NCI-H1651 = system: NCI-H1651
Outline: as §1

LC-2-ad = system: LC-2-ad
Outline: as §1

A-427 = system: A-427
Outline: as §1

NCI-H1650 = system: NCI-H1650
Outline: as §1

NCI-H650 = system: NCI-H650
Outline: as §1

NCI-H727 = system: NCI-H727
Outline: as §1

ABC-1 = system: ABC-1
Outline: as §1

NCI-H460 = system: NCI-H460
Outline: as §1

H3255 = system: H3255
Outline: as §1

NCI-H1944 = system: NCI-H1944
Outline: as §1

For `CC1(C)CCC(c2ccc(Cl)cc2)=C(CN2CCN(c3ccc(C(=O)NS(=O)(=O)c4ccc(N[C@H](CCN5CCOCC5)CSc5ccccc5)c(S(=O)(=O)C(F)(F)F)c4)cc3)CC2)C1` [Navitoclax] + CC(=O)c1c(C)c2cnc(Nc3ccc(N4CCNCC4)cn3)nc2n(C2CCCC2)c1=O [Palbociclib] (partner 0.5 µM), which relative viability (201T; first compound 0.005 µM) is on record?
The relative viability was 0.342.

And the relative viability (201T; first compound 0.01581 µM)?
The relative viability was 0.347.

What about the relative viability (201T; first compound 0.05 µM) of the same compound?
Its relative viability is 0.362.

And the relative viability (201T; first compound 0.1581 µM)?
The relative viability was 0.365.

What about the relative viability (201T; first compound 0.5 µM) of the same compound?
Its relative viability is 0.355.

And the relative viability (NCI-H2023; first compound 0.005 µM)?
The relative viability was 0.421.

And the relative viability (NCI-H2023; first compound 0.01581 µM)?
The relative viability was 0.427.

What about the relative viability (NCI-H2023; first compound 0.05 µM) of the same compound?
The relative viability was 0.384.

What about the relative viability (NCI-H2023; first compound 0.1581 µM) of the same compound?
Its relative viability is 0.401.

What about the relative viability (NCI-H2023; first compound 0.5 µM) of the same compound?
The relative viability was 0.439.

What about the relative viability (NCI-H1792; first compound 0.005 µM) of the same compound?
The relative viability was 0.651.

What about the relative viability (NCI-H1792; first compound 0.01581 µM) of the same compound?
Its relative viability is 0.661.

What about the relative viability (NCI-H1792; first compound 0.05 µM) of the same compound?
The relative viability was 0.563.

And the relative viability (NCI-H1792; first compound 0.1581 µM)?
The relative viability was 0.628.

What about the relative viability (NCI-H1792; first compound 0.5 µM) of the same compound?
Its relative viability is 0.647.

And the relative viability (NCI-H2087; first compound 0.005 µM)?
Its relative viability is 0.22.

And the relative viability (NCI-H2087; first compound 0.01581 µM)?
The relative viability was 0.244.

And the relative viability (NCI-H2087; first compound 0.1581 µM)?
Its relative viability is 0.255.

What about the relative viability (NCI-H2087; first compound 0.5 µM) of the same compound?
Its relative viability is 0.257.

And the relative viability (NCI-H1915; first compound 0.005 µM)?
The relative viability was 0.585.

And the relative viability (NCI-H1915; first compound 0.01581 µM)?
Its relative viability is 0.544.

What about the relative viability (NCI-H1915; first compound 0.05 µM) of the same compound?
The relative viability was 0.499.

And the relative viability (NCI-H1915; first compound 0.1581 µM)?
Its relative viability is 0.507.

What about the relative viability (NCI-H1915; first compound 0.5 µM) of the same compound?
Its relative viability is 0.509.

And the relative viability (NCI-H441; first compound 0.005 µM)?
The relative viability was 0.225.

And the relative viability (NCI-H441; first compound 0.01581 µM)?
Its relative viability is 0.268.

What about the relative viability (NCI-H441; first compound 0.05 µM) of the same compound?
The relative viability was 0.192.

And the relative viability (NCI-H441; first compound 0.1581 µM)?
Its relative viability is 0.216.

What about the relative viability (NCI-H441; first compound 0.5 µM) of the same compound?
The relative viability was 0.284.

And the relative viability (PC-3 [JPC-3]; first compound 0.005 µM)?
The relative viability was 0.576.

And the relative viability (PC-3 [JPC-3]; first compound 0.01581 µM)?
The relative viability was 0.575.

What about the relative viability (PC-3 [JPC-3]; first compound 0.05 µM) of the same compound?
The relative viability was 0.545.

What about the relative viability (PC-3 [JPC-3]; first compound 0.1581 µM) of the same compound?
Its relative viability is 0.531.

And the relative viability (PC-3 [JPC-3]; first compound 0.5 µM)?
Its relative viability is 0.506.

What about the relative viability (LCLC-97TM1; first compound 0.005 µM) of the same compound?
Its relative viability is 0.239.

And the relative viability (LCLC-97TM1; first compound 0.01581 µM)?
Its relative viability is 0.215.

And the relative viability (LCLC-97TM1; first compound 0.05 µM)?
Its relative viability is 0.166.

And the relative viability (LCLC-97TM1; first compound 0.1581 µM)?
Its relative viability is 0.203.

What about the relative viability (LCLC-97TM1; first compound 0.5 µM) of the same compound?
Its relative viability is 0.241.

And the relative viability (NCI-H661; first compound 0.005 µM)?
The relative viability was 0.426.

And the relative viability (NCI-H661; first compound 0.01581 µM)?
The relative viability was 0.451.

And the relative viability (NCI-H661; first compound 0.05 µM)?
Its relative viability is 0.387.

And the relative viability (NCI-H661; first compound 0.1581 µM)?
The relative viability was 0.435.

And the relative viability (NCI-H661; first compound 0.5 µM)?
The relative viability was 0.384.

And the relative viability (NCI-H520; first compound 0.005 µM)?
Its relative viability is 0.273.

What about the relative viability (NCI-H520; first compound 0.01581 µM) of the same compound?
The relative viability was 0.25.

And the relative viability (NCI-H520; first compound 0.05 µM)?
The relative viability was 0.18.

And the relative viability (NCI-H520; first compound 0.1581 µM)?
The relative viability was 0.182.

And the relative viability (NCI-H520; first compound 0.5 µM)?
The relative viability was 0.217.

What about the relative viability (BEN; first compound 0.005 µM) of the same compound?
The relative viability was 0.475.

What about the relative viability (BEN; first compound 0.01581 µM) of the same compound?
The relative viability was 0.525.

What about the relative viability (BEN; first compound 0.05 µM) of the same compound?
The relative viability was 0.462.

What about the relative viability (BEN; first compound 0.1581 µM) of the same compound?
Its relative viability is 0.399.

What about the relative viability (BEN; first compound 0.5 µM) of the same compound?
The relative viability was 0.268.

And the relative viability (CAL-12T; first compound 0.005 µM)?
Its relative viability is 0.4.

What about the relative viability (CAL-12T; first compound 0.01581 µM) of the same compound?
Its relative viability is 0.445.

What about the relative viability (CAL-12T; first compound 0.05 µM) of the same compound?
The relative viability was 0.409.

What about the relative viability (CAL-12T; first compound 0.1581 µM) of the same compound?
The relative viability was 0.496.

And the relative viability (CAL-12T; first compound 0.5 µM)?
The relative viability was 0.405.

What about the relative viability (NCI-H1651; first compound 0.005 µM) of the same compound?
Its relative viability is 0.513.

And the relative viability (NCI-H1651; first compound 0.01581 µM)?
Its relative viability is 0.552.

What about the relative viability (NCI-H1651; first compound 0.05 µM) of the same compound?
Its relative viability is 0.494.

What about the relative viability (NCI-H1651; first compound 0.1581 µM) of the same compound?
Its relative viability is 0.513.

And the relative viability (NCI-H1651; first compound 0.5 µM)?
The relative viability was 0.54.

And the relative viability (LC-2-ad; first compound 0.005 µM)?
Its relative viability is 0.505.

And the relative viability (LC-2-ad; first compound 0.01581 µM)?
Its relative viability is 0.452.

And the relative viability (LC-2-ad; first compound 0.05 µM)?
Its relative viability is 0.456.

What about the relative viability (LC-2-ad; first compound 0.1581 µM) of the same compound?
Its relative viability is 0.413.

And the relative viability (LC-2-ad; first compound 0.5 µM)?
Its relative viability is 0.412.

And the relative viability (A-427; first compound 0.005 µM)?
Its relative viability is 0.502.

What about the relative viability (A-427; first compound 0.01581 µM) of the same compound?
Its relative viability is 0.512.

What about the relative viability (A-427; first compound 0.05 µM) of the same compound?
Its relative viability is 0.516.

And the relative viability (A-427; first compound 0.1581 µM)?
The relative viability was 0.514.

What about the relative viability (A-427; first compound 0.5 µM) of the same compound?
Its relative viability is 0.53.

And the relative viability (NCI-H1650; first compound 0.005 µM)?
Its relative viability is 0.385.

What about the relative viability (NCI-H1650; first compound 0.01581 µM) of the same compound?
Its relative viability is 0.456.

What about the relative viability (NCI-H1650; first compound 0.05 µM) of the same compound?
The relative viability was 0.315.

What about the relative viability (NCI-H1650; first compound 0.1581 µM) of the same compound?
The relative viability was 0.346.

What about the relative viability (NCI-H1650; first compound 0.5 µM) of the same compound?
The relative viability was 0.316.

What about the relative viability (NCI-H650; first compound 0.005 µM) of the same compound?
Its relative viability is 0.326.

And the relative viability (NCI-H650; first compound 0.01581 µM)?
The relative viability was 0.35.

And the relative viability (NCI-H650; first compound 0.05 µM)?
Its relative viability is 0.315.

What about the relative viability (NCI-H650; first compound 0.1581 µM) of the same compound?
Its relative viability is 0.304.

And the relative viability (NCI-H650; first compound 0.5 µM)?
Its relative viability is 0.336.

What about the relative viability (NCI-H727; first compound 0.005 µM) of the same compound?
Its relative viability is 0.625.

What about the relative viability (NCI-H727; first compound 0.01581 µM) of the same compound?
Its relative viability is 0.602.

And the relative viability (NCI-H727; first compound 0.05 µM)?
The relative viability was 0.67.

And the relative viability (NCI-H727; first compound 0.1581 µM)?
The relative viability was 0.584.

And the relative viability (NCI-H727; first compound 0.5 µM)?
The relative viability was 0.527.

And the relative viability (ABC-1; first compound 0.005 µM)?
The relative viability was 0.896.

What about the relative viability (ABC-1; first compound 0.01581 µM) of the same compound?
The relative viability was 0.845.

What about the relative viability (ABC-1; first compound 0.05 µM) of the same compound?
Its relative viability is 0.691.

And the relative viability (ABC-1; first compound 0.1581 µM)?
Its relative viability is 0.747.

What about the relative viability (ABC-1; first compound 0.5 µM) of the same compound?
The relative viability was 0.639.

And the relative viability (NCI-H460; first compound 0.005 µM)?
Its relative viability is 0.167.

What about the relative viability (NCI-H460; first compound 0.01581 µM) of the same compound?
The relative viability was 0.159.

What about the relative viability (NCI-H460; first compound 0.05 µM) of the same compound?
Its relative viability is 0.0945.

What about the relative viability (NCI-H460; first compound 0.1581 µM) of the same compound?
The relative viability was 0.217.

What about the relative viability (NCI-H460; first compound 0.5 µM) of the same compound?
The relative viability was 0.13.

And the relative viability (H3255; first compound 0.005 µM)?
The relative viability was 0.304.

And the relative viability (H3255; first compound 0.01581 µM)?
The relative viability was 0.329.

What about the relative viability (H3255; first compound 0.05 µM) of the same compound?
The relative viability was 0.3.

What about the relative viability (H3255; first compound 0.1581 µM) of the same compound?
Its relative viability is 0.312.

And the relative viability (H3255; first compound 0.5 µM)?
The relative viability was 0.316.

And the relative viability (NCI-H1944; first compound 0.005 µM)?
The relative viability was 0.345.

What about the relative viability (NCI-H1944; first compound 0.01581 µM) of the same compound?
The relative viability was 0.364.

What about the relative viability (NCI-H1944; first compound 0.1581 µM) of the same compound?
The relative viability was 0.3.

And the relative viability (NCI-H1944; first compound 0.5 µM)?
The relative viability was 0.341.

— the supplement of paper PMC10307832
